Common to all, as to assay type: cell-based
The test system of assay [1] is HSP60-silenced cells. The assay is described as follows: Cell death in HSP60-silenced cells versus mock cells. The source says: Although cancer cells prefer aerobic glycolysis for energy, continual production of ATP via OXPHOS system is still required for rapid cancer cell survival and growth. ClpP along with LonP1 degrades Complex I during stress to alleviate mtROS, thus promoting cell survival. HSP60-silencing or inhibition of HSP60-ClpP interaction by DCEM1 contribute to mtROS buildup and mitotoxicity due to inhibition of ClpP function or ClpP-deficiency because ClpP is no longer available/functional in alleviating mtROS production and degrading unfolded protein in mitochondria leading to collapse of mitochondrial function and homeostasis. […] Mitochondrial proteases such as ClpP trigger mitochondria-to-nuclear signaling pathway and UPR^mt activation. Inhibition of ClpP expression and function by HSP60-silencing or HSP60 inhibitor such as DCEM1 may abolish mito-nuclear crosstalk leading to inhibition of retrograde signaling. Inhibition of HSP60 renders mitochondria in a fragile and dysfunctional state leading to enhanced apoptosis and blockage of cellular proliferation. Therefore, chemotherapeutic agents along with HSP60 inhibition may provide a novel combination for therapeutic benefits in PCa.

In assay [2] the test system is LNCaP and PC-3 cells. The assay is described as follows: Rescue of DCEM1-induced cell death by ROS quenchers (MTT cell viability). Here is the method: FIG. 6. Pharmacological inhibition of HSP60-ClpP interaction induces UPR^mt and PCa cell death. (A) Docking of DCEM1 into apical domain of HSP60. (B) LNCaP and PC-3 cells were treated with DCEM1 for 24 hours and HSP60-ClpP interaction was analyzed by co-immunoprecipitation assay. (C) LNCaP and PC-3 cells were treated with DCEM1 for 24 hours and mitoROS levels were analyzed by flow cytometry using mitoSOX dye. (D) LNCaP and PC-3 cells were treated with DCEM1 for 24 hours and poly-Ub protein levels were analyzed by western blotting. (E) LNCaP and PC-3 cells were treated with DCEM1 for 24 and 48 hours and apoptotic cell populations were analyzed by flow cytometry using Annexin V FITC/PI method as explained in materials and methods. In (E) top panel, the bars in each series from left to right are control, 5, 10, and 20, and in (E) bottom panel, the bars in each series from left to right are DMSO, 5, 10, and 20. (F) LNCaP and PC-3 cells were treated with DCEM1 for 24 and 48 hours and lysates were prepared and analyzed for DEVDase activity using specific peptide substrate. […] (G) LNCaP and PC-3 cells were pre-treated with SKQ1 followed by DCEM1 treatment and analyzed for cell viability by MTT assay. (H) LNCaP and PC-3 cells were treated with either DCEM1 or H2O2 (200 μM) for 24 hours and total DNA were isolated and analyzed for mtDNA damage as described in materials and methods. […]

The target of assay [3] is T1, c-Myc (Homo sapiens, UniProt P01106).
T1 construct: endogenous in cells; host or cells: LNCaP and PC-3 cells
T1 sequence (P01106 whole entry): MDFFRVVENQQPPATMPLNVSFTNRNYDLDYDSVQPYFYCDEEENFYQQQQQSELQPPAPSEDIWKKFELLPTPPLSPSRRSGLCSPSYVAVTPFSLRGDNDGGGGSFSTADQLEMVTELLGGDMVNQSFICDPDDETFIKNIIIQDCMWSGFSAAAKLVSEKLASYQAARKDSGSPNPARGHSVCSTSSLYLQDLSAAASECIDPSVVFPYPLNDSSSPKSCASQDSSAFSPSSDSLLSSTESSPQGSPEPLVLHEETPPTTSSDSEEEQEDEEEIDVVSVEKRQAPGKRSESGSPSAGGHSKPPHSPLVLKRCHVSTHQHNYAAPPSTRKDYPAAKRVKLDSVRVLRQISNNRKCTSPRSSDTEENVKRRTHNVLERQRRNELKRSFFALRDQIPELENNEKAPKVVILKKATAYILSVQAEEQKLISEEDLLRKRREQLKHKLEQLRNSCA
The assay can be described thus: HSP60 and ClpP expression after c-Myc inhibitor. To be noted: LNCaP and PC-3 cells, 50 μM, 24 hrs. The source says: FIG. 4. HSP60 regulate ClpP expression but not vice versa. (A) HSP60 and ClpP stable knockdown LNCaP and PC-3 cells were generated using shRNA and analyzed for HSP60 and ClpP expression levels. Actin serves as loading control. (B-C) HSP60 and ClpP knockdown LNCaP and PC-3 cells were crosslinked with EGS, lysed and protein samples run on an SDS-PAGE gel as described in material and methods. Membranes were probed with either ClpP or HSP60 antibody to analyze the oligomerization status of these proteins. (D) Enzymatic activity of ClpP was assayed from mitochondrial pellets isolated from HSP60 knockdown PC-3 cells and DU145 Hsp60^+/− cells. (E) HSP60 was overexpressed in PC-3 cells and analyzed for ClpP expression. Actin serves as loading control. (F) ClpP was overexpressed in LNCaP, DU145 and PC-3 cells and analyzed for HSP60 expression. Actin serves as loading control. […] Whole cell lysates were prepared and analyzed for HSP60 and ClpP expression. […] (H) c-Myc binding efficiency with ClpP promoter in HSP60 knockdown LNCaP and PC-3 cells was determined using chromatin immunoprecipitation (ChIP) assay using specific primers. […]
HSP60 regulates expression of ClpP via c-Myc but not vice versa. […] To confirm that c-Myc is a regulator for ClpP expression, PCa cells were treated with c-Myc pharmacological inhibitor 10058-F4 and analyzed ClpP expression levels. […]

Assay [4] has as its system mitochondrial chaperonin activity in PCa cells. The assay is described as follows: Mitochondrial Chaperonin Activity Assay (MiCAA). To be noted: 24 h. Here is the method:
FIG. 10. Mitochondrial Chaperonin Activity Assay (MiCAA). PCa cells were treated with either DCEM1 (A) or ETB or Mizoribine (B) for 24 h and mitochondrial (Mito) chaperonin activity was analyzed as described in material and methods. In another experiment, PCa cells were transfected with siRNA to target HSP60 mRNA and mitochondrial chaperonin activity was analyzed (C). In (A), the bars in each series from left to right are DMSO and DCEM1. In (B), the bars in each series from left to right are DMSO, ETB, and MZR. In (C), the bars in each series from left to right are siMock, siHSP60-1, and siHSP60-2.
Since HSP60 chaperonin system is crucial for maintaining mitochondrial homeostasis in normal cells, a novel method, Mitochondrial Chaperonin Activity Assay (MiCAA), was developed to analyze chaperonin activity in live cells using flow cytometry to evaluate whether DCEM1 modulates mitochondrial chaperonin activity.

In the case of `CC(=O)O[C@@]12CO[C@@H]1C[C@H](O)[C@@]1(C)C(=O)[C@H](O)C3=C(C)[C@@H](OC(=O)[C@H](O)[C@@H](NC(=O)OC(C)(C)C)c4ccccc4)C[C@@](O)([C@@H](OC(=O)c4ccccc4)[C@H]21)C3(C)C` [docetaxel], the “cell death induction in HSP60-silenced cells compared to mock cells” value in assay [1] was “more efficacious”.

As to `CC(=O)N[C@@H](CS)C(=O)O` [NAC], the “effect of NAC pre-treatment on DCEM1-induced cell death” value in assay [2] (PCa cells, data not shown) is recorded as “antagonizes DCEM1-induced cell death”. On to `CCc1ccc(/C=C2/SC(=S)NC2=O)cc1` [10058-F4], for which, in assay [3], the ClpP expression entry is “downregulate ClpP expression” and the HSP60 expression result was “without affecting HSP60 expression”. For the compound `NC(=O)c1ncn([C@@H]2O[C@H](CO)[C@@H](O)[C@H]2O)c1O` [mizoribine, reference compound], the mitochondrial chaperonin activity result in assay [4] is “significantly inhibited”. `CC1=C(C)C(=O)C(CCCCCCCCCC[P+](c2ccccc2)(c2ccccc2)c2ccccc2)=CC1=O` [SKQ1]: in assay [2] (LNCaP and PC-3 cells pre-treated with SKQ1 followed by DCEM1, MTT assay), the “effect of mitoROS quencher pre-treatment on DCEM1-induced cell death” value was “inhibited DCEM1—induced cell death”.

Source of the values: patent US20240009174A1, “METHODS FOR DISRUPTING MITOCHONDRIAL UNFOLDED PROTEIN RESPONSE” (Health Research, Inc., priority 2020, published 2024).
